Reference: article PMC11450120, “One-pot synthesis, characterization and antiviral properties of new benzenesulfonamide-based spirothiazolidinones” (Molecular Diversity, 2024)
Like-named read-outs stand apart in the source and are kept apart here.

Assays:
in vitro = settings: dog
[1] = tested on: influenza B virus (B/Ned/537/05); test: Influenza virus CPE reduction assay in MDCK cells, influenza B; assay type: cell-based; settings: read-out: Antiviral EC50 Influenza B Microscopy
[2] = tested on: Madin-Darby canine kidney (MDCK) cells; settings: for cytotoxicity at the highest concentration tested: at 100 μM
[3] = tested on: influenza A/H1N1 (A/Virginia/ATCC3/2009) virus; test: Influenza virus CPE reduction assay in MDCK cells, A/H1N1; assay type: cell-based
[4] = tested on: influenza A/H3N2 (A/HK/7/87) virus; test: Influenza virus CPE reduction assay in MDCK cells, A/H3N2; assay type: cell-based
[5] = Influenza B virus, 96 h, CPE by microscopic scoring, 4 days at 35 °C
[6] = Influenza A virus, 96 h, CPE by microscopic scoring, 4 days at 35 °C, read-out: Antiviral EC50 Influenza A/H1N1 Microscopy
[7] = Influenza A virus, 96 h, MTS cell viability assay, 4 days at 35 °C, read-out: Antiviral EC50 Influenza A/H1N1 MTS
[8] = Influenza A virus, H3N2, 96 h, CPE by microscopic scoring, 4 days at 35 °C, read-out: Antiviral EC50 Influenza A/H3N2 Microscopy
[9] = Influenza A virus, H3N2, 96 h, MTS cell viability assay, 4 days at 35 °C, read-out: Antiviral EC50 Influenza A/H3N2 MTS
[10] = Influenza A virus, read-out: EC50 against influenza A/H1N1 virus (range over microscopy and MTS)

Row | SMILES | CC50 (in vitro) | melting point | EC50 [1, 5] | Cytotoxicity MCC (minimal cytotoxic concentration) ([2]; dog) | EC50 [3, 6] | EC50 [3, 7] | EC50 [4, 8] | EC50 [4, 9] | EC50 ([1]; microscopic scoring, BXA concentration unit nM) | CC50 [2] | Cytotoxicity MCC (minimal cytotoxic concentration) [2] | EC50 ([3]; MTS assay, BXA concentration unit nM, read-out: Antiviral EC50 Influenza A/H1N1 MTS) | EC50 ([3]; microscopic scoring, BXA concentration unit nM, read-out: Antiviral EC50 Influenza A/H1N1 Microscopy) | EC50 ([4]; MTS assay, BXA concentration unit nM, read-out: Antiviral EC50 Influenza A/H3N2 MTS) | EC50 ([4]; microscopic scoring, BXA concentration unit nM, read-out: Antiviral EC50 Influenza A/H3N2 Microscopy) | cytotoxicity at the highest concentration tested [2] | activity against influenza A/H1N1 virus (in words) [3] | EC50 [3, 10]
1 | COc1cc(S(N)(=O)=O)ccc1C(=O)NN1C(=O)C(C)SC12CCC(C(F)(F)F)CC2 (stereo not drawn) [3 g, 2-Methoxy-N-(2-methyl-3-oxo-1-thia-8-trifluoromethyl-4-azaspiro[4.5]decan-4-yl)-4-sulfamoylbenzamide] | > 100 µM | 210 to 214 °C | > 100000 nM | 100 µM | > 100000 nM | > 100000 nM | > 100000 nM | > 100000 nM |  |  |  |  |  |  |  |  |  | 
2 | COc1cc(S(N)(=O)=O)ccc1C(=O)NN1C(=O)C(C)SC12CCC(c1ccccc1)CC2 (stereo not drawn) [3 h, 2-Methoxy-N-(2-methyl-3-oxo-8-phenyl-1-thia-4-azaspiro[4.5]decan-4-yl)-4-sulfamoylbenzamide] | > 100 µM | 290 to 292 °C | > 100000 nM | 100 µM | > 100000 nM | > 100000 nM | > 100000 nM | > 100000 nM |  |  |  |  |  |  |  |  |  | 
3 | O=C1c2c(O)c(=O)ccn2N([C@@H]2c3ccccc3SCc3c2ccc(F)c3F)[C@@H]2COCCN12 [BXA, baloxavir acid, reference compound] |  |  |  |  |  |  |  |  | 8.3 nM | > 0.02 µM | > 0.02 µM | 1.5 nM | 1.8 nM | 1.7 nM | 2 nM |  |  | 
4 | COc1cc(S(N)(=O)=O)ccc1C(=O)NN1C(=O)C(C)SC12CCCC(C)C2 (stereo not drawn) [Compound 3a, 2-Methoxy-N-(2,7-dimethyl-3-oxo-1-thia-4-azaspiro[4.5]decan-4-yl)-4-sulfamoylbenzamide] | > 100 µM | 261 to 264 °C | > 100000 nM | > 100 µM | > 100000 nM | 76000 nM | > 100000 nM | 64000 nM |  |  |  |  |  |  |  |  |  | 
5 | COc1cc(S(N)(=O)=O)ccc1C(=O)NN1C(=O)C(C)SC12CCC(C)CC2 (stereo not drawn) [Compound 3b, 2-Methoxy-N-(2,8-dimethyl-3-oxo-1-thia-4-azaspiro[4.5]decan-4-yl)-4-sulfamoylbenzamide] | > 100 µM | 258 to 261 °C | > 100000 nM | > 100 µM | > 100000 nM | > 100000 nM | > 100000 nM | > 100000 nM |  |  |  |  |  |  |  |  |  | 
6 | CCC1CCC2(CC1)SC(C)C(=O)N2NC(=O)c1ccc(S(N)(=O)=O)cc1OC (stereo not drawn) [Compound 3c, 2-Methoxy-N-(8-ethyl-2-methyl-3-oxo-1-thia-4-azaspiro[4.5]decan-4-yl)-4-sulfamoylbenzamide] | > 100 µM | 270 to 272 °C | > 100000 nM | 100 µM | > 100000 nM | 80000 nM | > 100000 nM | > 100000 nM |  |  |  |  |  |  |  |  |  | 
7 | CCCC1CCC2(CC1)SC(C)C(=O)N2NC(=O)c1ccc(S(N)(=O)=O)cc1OC (stereo not drawn) [Compound 3d, 2-Methoxy-N-(2-methyl-3-oxo-8-propyl-1-thia-4-azaspiro[4.5]decan-4-yl)-4-sulfamoylbenzamide] | > 100 µM | 274 to 276 °C | > 100000 nM | 100 µM | 45000 nM | 39000 nM | > 100000 nM | > 100000 nM |  |  |  |  |  |  |  | no cytotoxicity | weak activity | 35000 to 45000 nM
8 | COc1cc(S(N)(=O)=O)ccc1C(=O)NN1C(=O)C(C)SC12CCC(C(C)(C)C)CC2 (stereo not drawn) [Compound 3e, 2-Methoxy-N-(2-methyl-3-oxo-8-tert-butyl-1-thia-4-azaspiro[4.5]decan-4-yl)-4-sulfamoylbenzamide] | > 100 µM | 301 to 304 °C | > 100000 nM | > 100 µM | 45000 nM | 35000 nM | > 100000 nM | 68000 nM |  |  |  |  |  |  |  | no cytotoxicity | weak activity | 35000 to 45000 nM
9 | CCC(C)(C)C1CCC2(CC1)SC(C)C(=O)N2NC(=O)c1ccc(S(N)(=O)=O)cc1OC (stereo not drawn) [Compound 3f, 2-Methoxy-N-(2-methyl-3-oxo-8-tert-pentyl-1-thia-4-azaspiro[4.5]decan-4-yl)-4-sulfamoylbenzamide] | > 100 µM | 290 to 295 °C | > 100000 nM | > 100 µM | > 100000 nM | > 100000 nM | > 100000 nM | > 100000 nM |  |  |  |  |  |  |  |  |  | 
10 | COc1cc(S(N)(=O)=O)ccc1C(=O)NN1C(=O)C(C)SC12CCC(C#N)(c1ccccc1)CC2 (stereo not drawn) [Compound 3i, 2-Methoxy-N-(8-cyano-2-methyl-3-oxo-8-phenyl-1-thia-4-azaspiro[4.5]decan-4-yl)-4-sulfamoylbenzamide] | > 100 µM | 265 to 270 °C | > 100000 nM | > 100 µM | > 100000 nM | 74000 nM | > 100000 nM | > 100000 nM |  |  |  |  |  |  |  |  |  | 
11 | COc1cc(S(N)(=O)=O)ccc1C(=O)NN1C(=O)C(C)SC12CCC(NC(C)=O)CC2 (stereo not drawn) [Compound 3j, 2-Methoxy-N-(8-acetamido-2-methyl-3-oxo-1-thia-4-azaspiro[4.5]decan-4-yl)-4-sulfamoylbenzamide] | > 100 µM |  | > 100000 nM | > 100 µM | > 100000 nM | > 100000 nM | > 100000 nM | > 100000 nM |  |  |  |  |  |  |  |  |  | 
12 | NC(=O)c1ncn([C@@H]2O[C@H](CO)[C@@H](O)[C@H]2O)n1 [Ribavirin, reference compound] | > 100 µM |  | 10000 nM |  | 45000 nM | 25000 nM | 40000 nM | 26000 nM |  |  |  |  |  |  |  |  |  | 
13 | CC(=O)N[C@H]1[C@H]([C@H](O)[C@H](O)CO)OC(C(=O)O)=C[C@@H]1N=C(N)N [Zanamivir, reference compound] | > 100 µM |  | < 800 nM | > 100 µM | > 100000 nM | > 100000 nM | < 800 nM | < 800 nM |  |  |  |  |  |  |  |  |  | 
